Molecular target: T1, human PAH with the R408W mutation (Homo sapiens, UniProt P00439, R408W)
T1 construct: expressed in transfected cells
T1 sequence (P00439 1-452 R408W): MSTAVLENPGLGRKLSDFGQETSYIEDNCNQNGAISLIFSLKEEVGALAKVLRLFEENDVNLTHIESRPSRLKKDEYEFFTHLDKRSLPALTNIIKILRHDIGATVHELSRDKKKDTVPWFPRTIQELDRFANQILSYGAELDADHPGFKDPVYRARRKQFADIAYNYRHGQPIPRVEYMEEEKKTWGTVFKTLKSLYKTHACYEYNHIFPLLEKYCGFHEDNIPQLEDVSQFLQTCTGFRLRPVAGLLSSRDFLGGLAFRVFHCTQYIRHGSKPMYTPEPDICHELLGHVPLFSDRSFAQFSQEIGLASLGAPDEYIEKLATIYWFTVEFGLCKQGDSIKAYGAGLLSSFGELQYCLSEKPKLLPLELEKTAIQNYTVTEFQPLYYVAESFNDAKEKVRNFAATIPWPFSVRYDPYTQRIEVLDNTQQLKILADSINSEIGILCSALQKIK
Experiment: Cell Based Phenylalanine Flux Assay
Conditions: A375 cells expressing human R408W PAH; 24 hrs compound incubation; 13C-Tyrosine by LC-MS; average where tested multiple times; read-out: AC50

AC50 [nM]	Structure (SMILES)
> 5000	O=C(c1cnn2cc(F)ccc12)N1CCc2[nH]cnc2[C@@H]1c1nc2ccccc2s1 [Example 1040, (R)-(4-(benzo[d]thiazol-2-yl)-6,7-dihydro-1H-imidazo[4,5-c]pyridin-5(4H)-yl)(6-fluoropyrazolo[1,5-a]pyridin-3-yl)methanone]
> 5000	Cc1csc(C(=O)N2CCc3[nH]cnc3[C@@H]2c2nc3ccccc3s2)n1 [Example 1043, (R)-(4-(benzo[d]thiazol-2-yl)-6,7-dihydro-1H-imidazo[4,5-c]pyridin-5(4H)-yl)(4-methylthiazol-2-yl)methanone]
1000 to 5000	Cc1csc(C(=O)N2CCc3[nH]cnc3[C@H]2c2nc3ccccc3s2)n1 [Example 1044]
< 500	O=C(c1cnn2ccc(Br)cc12)N1CCc2[nH]cnc2[C@H]1c1nc2ccccc2s1 [Example 1047]
1000 to 5000	O=C(c1cnn2ccc(Br)cc12)N1CCc2[nH]cnc2[C@@H]1c1nc2ccccc2s1 [Example 1048, (R)-(4-(benzo[d]thiazol-2-yl)-6,7-dihydro-1H-imidazo[4,5-c]pyridin-5(4H)-yl)(5-bromopyrazolo[1,5-a]pyridin-3-yl)methanone]
500 to 1000	O=C(c1n[nH]c2ccccc12)N1CCc2[nH]cnc2[C@H]1c1nc2ccccc2s1 [Example 1049]
> 5000	O=C(c1n[nH]c2ccccc12)N1CCc2[nH]cnc2[C@@H]1c1nc2ccccc2s1 [Example 1050, (R)-(4-(benzo[d]thiazol-2-yl)-6,7-dihydro-1H-imidazo[4,5-c]pyridin-5(4H)-yl)(1H-indazol-3-yl)methanone]
500 to 1000	O=C(c1ccns1)N1CCc2[nH]cnc2[C@H]1c1nc2ccccc2s1 [Example 1051]
> 5000	O=C(c1ccns1)N1CCc2[nH]cnc2[C@@H]1c1nc2ccccc2s1 [Example 1052, (R)-(4-(benzo[d]thiazol-2-yl)-6,7-dihydro-1H-imidazo[4,5-c]pyridin-5(4H)-yl)(isothiazol-5-yl)methanone]
> 5000	Cc1cnc(C(=O)N2CCc3[nH]cnc3[C@@H]2c2nc3ccccc3s2)s1 [Example 1056, (R)-(4-(benzo[d]thiazol-2-yl)-6,7-dihydro-1H-imidazo[4,5-c]pyridin-5(4H)-yl)(5-methylthiazol-2-yl)methanone]
500 to 1000	O=C(c1nc(Cl)cs1)N1CCc2[nH]cnc2[C@H]1c1nc2ccccc2s1 [Example 1057]
1000 to 5000	O=C(c1nc(Cl)cs1)N1CCc2[nH]cnc2[C@@H]1c1nc2ccccc2s1 [Example 1058, (R)-(4-(benzo[d]thiazol-2-yl)-6,7-dihydro-1H-imidazo[4,5-c]pyridin-5(4H)-yl)(4-chlorothiazol-2-yl)methanone]
< 500	O=C(c1cncs1)N1CCc2[nH]cnc2[C@H]1c1nc2ccccc2s1 [Example 1059]
> 5000	O=C(c1cncs1)N1CCc2[nH]cnc2[C@@H]1c1nc2ccccc2s1 [Example 1060, (R)-(4-(benzo[d]thiazol-2-yl)-6,7-dihydro-1H-imidazo[4,5-c]pyridin-5(4H)-yl)(thiazol-5-yl)methanone]
500 to 1000	O=C(c1cnsc1)N1CCc2[nH]cnc2[C@H]1c1nc2ccccc2s1 [Example 1061]
> 5000	O=C(c1cnsc1)N1CCc2[nH]cnc2[C@@H]1c1nc2ccccc2s1 [Example 1062, (R)-(4-(benzo[d]thiazol-2-yl)-6,7-dihydro-1H-imidazo[4,5-c]pyridin-5(4H)-yl)(isothiazol-4-yl)methanone]
< 500	O=C(c1cnn2cc(Cl)ccc12)N1CCc2[nH]cnc2[C@H]1c1nc2ccccc2s1 [Example 1063]
> 5000	O=C(c1cnn2cc(Cl)ccc12)N1CCc2[nH]cnc2[C@@H]1c1nc2ccccc2s1 [Example 1064, (R)-(4-(benzo[d]thiazol-2-yl)-6,7-dihydro-1H-imidazo[4,5-c]pyridin-5(4H)-yl)(6-chloropyrazolo[1,5-a]pyridin-3-yl)methanone]
< 500	O=C(c1ccccc1)N1CCc2[nH]cnc2[C@H]1c1nc2ccccc2s1 [Example 1065]
> 5000	O=C(c1nncs1)N1CCc2[nH]cnc2[C@@H]1c1nc2ccccc2s1 [Example 1067, (R)-(4-(benzo[d]thiazol-2-yl)-6,7-dihydro-1H-imidazo[4,5-c]pyridin-5(4H)-yl)(1,3,4-thiadiazol-2-yl)methanone]
500 to 1000	O=C(c1nncs1)N1CCc2[nH]cnc2[C@H]1c1nc2ccccc2s1 [Example 1068]
500 to 1000	O=C(c1cnn2c(Br)cccc12)N1CCc2[nH]cnc2[C@H]1c1nc2ccccc2s1 [Example 1069]
1000 to 5000	O=C(c1cnn2c(Br)cccc12)N1CCc2[nH]cnc2[C@@H]1c1nc2ccccc2s1 [Example 1070, (R)-(4-(benzo[d]thiazol-2-yl)-6,7-dihydro-1H-imidazo[4,5-c]pyridin-5(4H)-yl)(7-bromopyrazolo[1,5-a]pyridin-3-yl)methanone]

The next lines start with the compound.

Structure (SMILES)	AC50 [nM]
Cc1nnc(C(=O)N2CCc3[nH]cnc3[C@H]2c2nc3ccccc3s2)s1 [Example 1041]	1000 to 5000
Cc1nnc(C(=O)N2CCc3[nH]cnc3[C@@H]2c2nc3ccccc3s2)s1 [Example 1042, (R)-(4-(benzo[d]thiazol-2-yl)-6,7-dihydro-1H-imidazo[4,5-c]pyridin-5(4H)-yl)(5-methyl-1,3,4-thiadiazol-2-yl)methanone]	> 5000
O=C(c1ncc(Cl)s1)N1CCc2[nH]cnc2[C@H]1c1nc2ccccc2s1 [Example 1053]	500 to 1000
O=C(c1ncc(Cl)s1)N1CCc2[nH]cnc2[C@@H]1c1nc2ccccc2s1 [Example 1054, (R)-(4-(benzo[d]thiazol-2-yl)-6,7-dihydro-1H-imidazo[4,5-c]pyridin-5(4H)-yl)(5-chlorothiazol-2-yl)methanone]	1000 to 5000
Cc1cnc(C(=O)N2CCc3[nH]cnc3[C@H]2c2nc3ccccc3s2)s1 [Example 1055]	500 to 1000
O=C(CC1CC1)N1CCc2[nH]cnc2[C@H]1c1nc2ccccc2s1 [Example 1071]	< 500
O=C(CC1CC1)N1CCc2[nH]cnc2[C@@H]1c1nc2ccccc2s1 [Example 1072, (R)-1-(4-(benzo[d]thiazol-2-yl)-6,7-dihydro-1H-imidazo[4,5-c]pyridin-5(4H)-yl)-2-cyclopropylethanone]	1000 to 5000
O=C(C1CC1)N1CCc2[nH]cnc2[C@H]1c1nc2ccccc2s1 [Example 1073]	1000 to 5000
O=C(C1CC1)N1CCc2[nH]cnc2[C@@H]1c1nc2ccccc2s1 [Example 1074, (R)-(4-(benzo[d]thiazol-2-yl)-6,7-dihydro-1H-imidazo[4,5-c]pyridin-5(4H)-yl)(cyclopropyl)methanone]	> 5000
O=C(CCC1CC1)N1CCc2[nH]cnc2[C@H]1c1nc2cc(F)ccc2s1 [Example 1075, (S)-3-cyclopropyl-1-(4-(5-fluorobenzo[d]thiazol-2-yl)-6,7-dihydro-1H-imidazo[4,5-c]pyridin-5(4H)-yl)propan-1-one]	500 to 1000
O=C(CCC1CC1)N1CCc2[nH]cnc2[C@@H]1c1nc2cc(F)ccc2s1 [Example 1076, (R)-3-cyclopropyl-1-(4-(5-fluorobenzo[d]thiazol-2-yl)-6,7-dihydro-1H-imidazo[4,5-c]pyridin-5(4H)-yl)propan-1-one]	1000 to 5000
O=C(CCc1nccs1)N1CCc2[nH]cnc2[C@H]1c1nc2c(F)cccc2s1 [Example 1077, (S)-1-(4-(4-fluorobenzo[d]thiazol-2-yl)-6,7-dihydro-1H-imidazo[4,5-c]pyridin-5(4H)-yl)-3-(thiazol-2-yl)propan-1-one]	1000 to 5000
O=C(CCc1nccs1)N1CCc2[nH]cnc2[C@@H]1c1nc2c(F)cccc2s1 [Example 1078, (R)-1-(4-(4-fluorobenzo[d]thiazol-2-yl)-6,7-dihydro-1H-imidazo[4,5-c]pyridin-5(4H)-yl)-3-(thiazol-2-yl)propan-1-one]	> 5000
Cc1csc(CCC(=O)N2CCc3[nH]cnc3[C@H]2c2nc3ccccc3s2)n1 [Example 1079]	500 to 1000
Cc1csc(CCC(=O)N2CCc3[nH]cnc3[C@@H]2c2nc3ccccc3s2)n1 [Example 1080, (R)-1-(4-(benzo[d]thiazol-2-yl)-6,7-dihydro-1H-imidazo[4,5-c]pyridin-5(4H)-yl)-3-(4-methylthiazol-2-yl)propan-1-one]	> 5000
O=C(CCc1nccs1)N1CCc2[nH]cnc2[C@H]1c1nc2ccc(Br)cc2s1 [Example 1081, (S)-1-(4-(6-bromobenzo[d]thiazol-2-yl)-6,7-dihydro-1H-imidazo[4,5-c]pyridin-5(4H)-yl)-3-(thiazol-2-yl)propan-1-one]	500 to 1000
O=C(CCc1nccs1)N1CCc2[nH]cnc2[C@@H]1c1nc2ccc(Br)cc2s1 [Example 1082, (R)-1-(4-(6-bromobenzo[d]thiazol-2-yl)-6,7-dihydro-1H-imidazo[4,5-c]pyridin-5(4H)-yl)-3-(thiazol-2-yl)propan-1-one]	> 5000
COc1ccn2ncc(C(=O)N3CCc4[nH]cnc4[C@H]3c3nc4ccccc4s3)c2c1 [Example 1083]	< 500
COc1ccn2ncc(C(=O)N3CCc4[nH]cnc4[C@@H]3c3nc4ccccc4s3)c2c1 [Example 1084, (R)-(4-(benzo[d]thiazol-2-yl)-6,7-dihydro-1H-imidazo[4,5-c]pyridin-5(4H)-yl)(5-methoxypyrazolo[1,5-a]pyridin-3-yl)methanone]	1000 to 5000

Source: patent US20250171438A1 (Agios Pharmaceuticals, Inc., priority 2022, published 2025)
